Results published in patent US20050119297A1, “Use of 5HT3 agonists for relaxing the fundus” (priority 1999, published 2005).

Assays:
[1] = system: gastric tone in conscious dogs; assay: Gastric tone measured by an electronic barostat in conscious dogs; type: in vivo, beagle dogs; conditions: mean maximal change in gastric volume 1 hour after administration, intragastric pressure 6 mmHg
Method: C.1. Gastric Tone Measured by an Electronic Barostat in Conscious Dogs
Gastric tone cannot be measured by manometric methods. Therefore an electronic barostat was used. This allows the study of the physiological pattern and regulation of gastric tone in conscious dogs and the influence of test-compounds on this tone.
The barostat consists of an air injection system which is connected by a double-lumen 14-French polyvinyl tube to an ultrathin flaccid polyethylene bag (maximal volume: ±700 ml). Variations in gastric tone were measured by recording changes in the volume of air within an intragastric bag, maintained at a constant pressure. The barostat maintains a constant pressure (preselected) within a flaccid air-filled bag introduced into the stomach, changing the volume of air within the bag by an electronic feedback system.
Thus, the barostat measures gastric motor activity (contraction or relaxation) as changes in intragastric volume (decrease or increase resp.) at a constant intragastric pressure. The barostat consists of a strain gauge linked by an electronic relay to an air injection-aspiration system. Both the strain gauge and the injection system are connected by means of double-lumen polyvinyl tube to an ultrathin polyethylene bag. A dial in the barostat allows selection of the pressure level to be maintained within the intragastric bag.
Female beagle dogs, weighing 7-17 kg, were trained to stand quietly in Pavlov frames. They were implanted with a gastric cannula under general anaesthesia and aseptic precautions. After a median laparotomy, an incision was made through the gastric wall in longitudinal direction between the greater and the lesser curve, 2 cm above the nerves of Latarjet. The cannula was secured to the gastric wall by means of a double purse string suture and brought out via a stub wound at the left quadrant of the hypochondrium. Dogs were allowed a recovery period of two weeks.
At the beginning of the experiment, the cannula is opened in order to remove any gastric juice or food remnants. If necessary, the stomach is cleansed with 40 to 50 ml lukewarm water. The ultrathin bag of the barostat is positioned into the fundus of the stomach through the gastric cannula. In order to ensure easy unfolding of the intragastric bag during the experiment, a volume of 150-200 ml is injected into the bag by raising the pressure to maximally 14 mm Hg (about 1.87 kPa) very briefly. This procedure is repeated twice.
After a stabilization period of 60 minutes at an intragastric pressure of 6 mmHg (about 0.81 kPa), the test compound was administered subcutaneously, or intraduodenally. […] Table C-1 summarizes the mean maximal change in volume 1 hour after I.D. or S.C. administration of the compound (R)-N-(1-azabicyclo[2.2.2]oct-3-yl)-4,7-dihydro-7-oxothieno[3,2-b]pyridine-6-carboxamide monohydrochloride at test concentrations of 0.63 mg/kg, 0.16 mg/kg and 0.04 mg/kg.

[2] = target: 5-HT3 receptor; conditions: canine intestinal smooth muscle; read-out: affinity for the 5-HT3 receptor IC50; cited from earlier work

Q: Which “Maximum change in volume” value ([1]; I.D. administration, 0.04 mg/kg) does the source give for `Cl.O=C(N[C@H]1CN2CCC1CC2)c1c[nH]c2ccsc2c1=O` [(R)-N-(1-azabicyclo[2.2.2]oct-3-yl)-4,7-dihydro-7-oxothieno[3,2-b]pyridine-6-carboxamide monohydrochloride] here?
A: Its value is 57 mL.

Q: And the “Maximum change in volume” value ([1]; I.D. administration, 0.16 mg/kg)?
A: The value was 51 mL.

Q: What about the “Maximum change in volume” value ([1]; I.D. administration, 0.63 mg/kg) of the same molecule?
A: Its value is 104 mL.

Q: And the “Maximum change in volume” value ([1]; S.C. administration, 0.04 mg/kg)?
A: The value was 127 mL.

Q: And the “Maximum change in volume” value ([1]; S.C. administration, 0.16 mg/kg)?
A: Its value is 108 mL.

Q: What about the “Maximum change in volume” value ([1]; S.C. administration, 0.63 mg/kg) of the same molecule?
A: The value was 156 mL.

Q: What about the IC50 [2] of the same molecule?
A: Its IC50 is 1.3 nM.
